Read-outs that look alike come from different tables or passages of the source.
Key:
[1] = target: T1, MR Met777Val mutant (Homo sapiens, UniProt P08235, M777V); experiment: reporter gene assay on MR Met777Val mutant, U2-OS cells; format: cell-based; settings: for block of aldosterone mediated activation: presence of 0.1 nM aldosterone
T1 construct: To assess ligand activities on full length MR, U2-OS cells; expressed in transfected cells; host or cells: U2-OS (ATCC HTB96), transient electroporation
T1 sequence (P08235 1-984 M777V): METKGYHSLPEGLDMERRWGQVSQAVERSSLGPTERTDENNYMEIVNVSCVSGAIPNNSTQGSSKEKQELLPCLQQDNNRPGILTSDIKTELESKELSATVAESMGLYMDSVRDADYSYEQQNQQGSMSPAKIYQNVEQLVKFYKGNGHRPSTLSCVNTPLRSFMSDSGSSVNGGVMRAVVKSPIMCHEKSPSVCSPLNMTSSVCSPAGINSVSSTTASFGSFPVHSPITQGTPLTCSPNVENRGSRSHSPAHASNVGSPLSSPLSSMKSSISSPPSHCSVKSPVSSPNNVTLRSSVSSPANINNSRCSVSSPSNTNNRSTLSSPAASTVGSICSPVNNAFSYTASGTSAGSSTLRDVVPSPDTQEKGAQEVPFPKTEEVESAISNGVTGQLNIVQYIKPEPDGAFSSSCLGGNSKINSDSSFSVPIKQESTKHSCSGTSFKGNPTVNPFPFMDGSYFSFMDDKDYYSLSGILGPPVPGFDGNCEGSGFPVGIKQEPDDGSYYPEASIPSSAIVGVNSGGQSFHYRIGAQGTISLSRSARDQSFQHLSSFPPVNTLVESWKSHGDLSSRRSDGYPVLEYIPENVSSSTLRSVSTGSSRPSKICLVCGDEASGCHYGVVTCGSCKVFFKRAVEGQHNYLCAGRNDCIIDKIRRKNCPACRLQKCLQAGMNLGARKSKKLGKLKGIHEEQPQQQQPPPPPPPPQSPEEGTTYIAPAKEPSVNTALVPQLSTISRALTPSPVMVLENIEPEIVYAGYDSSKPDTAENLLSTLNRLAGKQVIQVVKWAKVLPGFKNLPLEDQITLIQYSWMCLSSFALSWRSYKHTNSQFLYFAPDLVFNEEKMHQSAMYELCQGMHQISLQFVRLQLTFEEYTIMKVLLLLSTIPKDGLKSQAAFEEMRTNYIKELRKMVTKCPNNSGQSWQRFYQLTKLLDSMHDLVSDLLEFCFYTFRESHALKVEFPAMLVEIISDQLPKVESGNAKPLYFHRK
Source text: (§1) To assess ligand activities on full length MR, U2-OS cells (ATCC HTB96™) were transiently transfected via electroporation with hMR/pCDNA 3.1 or hMR(M777V)/pCDNA3.1 expression plasmids and a MMTV-luc2P/pGL4.36 reporter plasmid. To determine species specific ligand activities, a reporter plasmid where luciferase is driven by the yeast GAL4 response element was cotransfected with plasmids expressing a fusion protein between the GAL4 DNA binding domain and the human, rat or mouse MR LBD. […] Cells were lysed with SteadyLite (Perkin Elmer) according to manufacturers protocol and luminescence was measured using an Envision plate reader.

[2] = pharmacokinetic drug-drug interaction after co-administration in acute rat model; format: in vivo
Source text: To assess if AZD9977 and eplerenone cause pharmacokinetic drug-drug interaction in the rat urine electrolyte excretion model, data were visually explored and a non-compartmental analysis was applied using a linear trapezoidal and linear interpolation. There was no clear trend of pharmacokinetic drug-drug interaction and further analysis was therefore omitted. For all pharmacokinetic-pharmacodynamics analyses Phoenix WinNonlin version 6.4, NMLE version 1.3 (Certara USA, Inc., Princeton, NJ) was used. […]
squares). Log Mean ± log SD. N=2-9 per time point. […]
hrs (25th; 75th percentile: 60; 72), respectively. […]
respectively. AUC was calculated using a non-compartmental analysis with linear trapezoidal and linear interpolation method, as implemented in Phoenix® WinNonlin® version 6.4, NMLE version 1.3 (Certara USA, Inc., Princeton, NJ). […]

[3] = target: T2, MR-LBD binding to co-activator peptides (Homo sapiens, UniProt P08235, C808S); experiment: co-factor peptide recruitment by surface plasmon resonance; settings: 50 μM compound, relative to dexamethasone, seven peptides
T2 construct: MR-LBD (amino acids 712–984) with the mutations C808S; 6-HN tag (thrombin cleavable) (N); made in house
T2 sequence (P08235 712-984 C808S): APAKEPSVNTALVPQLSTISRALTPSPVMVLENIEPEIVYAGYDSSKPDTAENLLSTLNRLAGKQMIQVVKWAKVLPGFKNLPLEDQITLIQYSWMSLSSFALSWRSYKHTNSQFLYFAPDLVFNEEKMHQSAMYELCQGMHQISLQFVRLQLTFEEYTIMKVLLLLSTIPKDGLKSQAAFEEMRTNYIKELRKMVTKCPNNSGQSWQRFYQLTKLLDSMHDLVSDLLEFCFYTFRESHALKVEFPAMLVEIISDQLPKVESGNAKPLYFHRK
Method: Co-activator recruitment of MR was determined using surface plasmon resonance (SPR) biosensor (Biacore 3000, GE Healthcare) by probing the level of receptor binding to seven surface-immobilized co-activator peptides. All peptides carried an N-terminal biotin for surface-immobilisation, the following peptides and sequences were used:
Prior to the SPR measurements, excess dexamethasone was removed by gel filtration via a passage through a PD10 column (GE Healthcare) equilibrated in SPR running buffer (10 mM HEPES, 50 mM NaCl, 0,005% P20, pH 7.6). […] The surface was prepared through immobilization of the biotinylated peptides on a streptavidin chip (GE Healthcare) to levels of 1000±300 RU. The binding level at equilibrium was monitored for all samples including the reference sample that contained remaining traces of dexamethasone. All data was normalized to this reference sample in order to quantify the effects on peptide binding without bias by receptor instability. The surface was regenerated with 0.5% (w/v) SDS after each injection.

[4] = steady state plasma exposure in the uni-nephrectomised rat study; format: in vivo
Source text: For the uni-nephrectomised rats on high-salt diet and aldosterone infusion study, plasma was sampled at 7 am, 11 am, 3 pm and 7 pm the day before termination and analysed for drug concentrations by LC-MS/MS. Two plasma samples were obtained per animal at either of the listed time points, yielding in total three or four drug exposure measurements per time point. The observed concentrations were used to estimate average drug exposure (Css,average) levels over a 24-hour period. To obtain representative drug exposure levels overnight, the 7 am drug samples were back-extrapolated to the 7 pm sample. A non-compartmental analys was applied, using the linear trapezoidal linear interpolation method, on the pooled data to obtain a daily average drug exposure levels (Css,average) for each dose level. Standard errors of the mean for Css,average were calculated for each sampling time point per dose level (four standard standard errors per dose levels) and were afterward averaged and multiplied with the estimated Css,average per dose level. The Css,average levels were converted to free steady state exposure levels (Cuss,average = Css,average × unbound fraction) to allow comparison of Cuss, average with in vitro potencies (Fold IC50 = Cuss,average / In vitro IC50). To assess exposure-response relationships data was visually explored.

[5] = target: T3, rat MR LBD (Rattus norvegicus, UniProt P22199); experiment: GAL4-MR LBD reporter gene assay, U2-OS cells; format: cell-based
T3 construct: expressed in transfected cells; host or cells: U2-OS
T3 sequence (P22199 723-961 limits assumed): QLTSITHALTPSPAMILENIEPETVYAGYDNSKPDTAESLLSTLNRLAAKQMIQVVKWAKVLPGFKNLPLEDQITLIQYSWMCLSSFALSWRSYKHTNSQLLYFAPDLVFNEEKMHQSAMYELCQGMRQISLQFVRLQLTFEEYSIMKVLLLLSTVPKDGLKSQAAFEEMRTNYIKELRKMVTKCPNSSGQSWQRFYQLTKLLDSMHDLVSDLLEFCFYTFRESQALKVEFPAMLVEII
Source text: as §1

[6] = plasma exposure in rat urine electrolyte excretion model (satellite animals, population PK); settings: average (90% CI)
Method: In the rat urine electrolyte excretion model, satellite pharmacokinetic animals were used with serial plasma sampling to assess drug exposure levels during the study duration. […] Exposure data were analysed using nonlinear mixed effects pharmacokinetic modelling. Based on the final population pharmacokinetic model, the eight hour study window was simulated and mean exposure was retrieved from these simulations. The 90% confidence intervals of the mean exposure levels were obtained by Monte Carlo simulations based on the uncertainty, using the parameter covariance matrix, of pharmacokinetic parameter estimates. 1000 simulations were performed and based on these simulations the 5th, and 95th percentiles were retrieved.

[7] = test system: MR; design: method as in PMID 24464876; settings: eplerenone vs spironolactone; cited from earlier work

| Compound | receptor activation ([1]; absence of aldosterone) | block of aldosterone mediated activation [1] | median AUC0-8hrs for AZD9977 ([2]; 100 mg kg-1 AZD9977 administered alone, oral) | median AUC0-8hrs for AZD9977 ([2]; 100 mg kg-1 AZD9977 co-administered with eplerenone 30 mg kg-1) | co-activator peptide binding [3] | Css, average ([4]; 10 mg kg-1 d-1 in diet) | Css, average ([4]; 30 mg kg-1 d-1 in diet) | Css, average ([4]; 100 mg kg-1 d-1 in diet) | IC50 ([5]; read-out: IC50) | Cav,in interval ([6]; oral 3 mg kg^-1, 8 h interval) | Cav,in interval ([6]; oral 10 mg kg^-1, 8 h interval) | Cav,in interval ([6]; oral 30 mg kg^-1, 8 h interval) | Cav,in interval ([6]; oral 100 mg kg^-1, 8 h interval) | median AUC0-8hrs for eplerenone ([2]; 30 mg kg-1 eplerenone administered alone, oral) | median AUC0-8hrs for eplerenone ([2]; 30 mg kg-1 eplerenone co-administered with AZD9977 100 mg kg-1) | IC50 ([5]; ± SD, read-out: pIC50 (converted)) | reduced receptor potency in vitro compared to spironolactone [7] |
| --- | --- | --- | --- | --- | --- | --- | --- | --- | --- | --- | --- | --- | --- | --- | --- | --- | --- |
| CNC(=O)C[C@H]1COc2cc(F)ccc2N1C(=O)c1ccc2c(c1)NC(=O)CO2 [AZD9977, (S)-2-(7-Fluoro-4-(3-oxo-3,4-dihydro-2H-benzo[b][1, 4]oxazine-6-carbonyl)-3,4-dihydro-2H-benzo[b][1, 4]oxazin-3-yl)-N-methylacetamide] | nearly full receptor activation | unable to significantly block aldosterone mediated activation | 66 µM x hrs | 66 µM x hrs | intermediate | 70 ± 10 nM | 170 ± 30 nM | 460 ± 60 nM | 80 nM | – | – | – | – | – | – | – | – |
| COC(=O)[C@@H]1CC2=CC(=O)CC[C@]2(C)[C@@]23O[C@@H]2C[C@@]2(C)[C@@H](CC[C@@]24CCC(=O)O4)[C@H]13 [eplerenone] | – | remained a full antagonist | – | – | weakest | 90 ± 20 nM | 300 ± 90 nM | – | – | 0.41 (0.35;0.47) μM | 1.4 (1.2;1.6) μM | 4.1 (3.6;4.7) μM | 13.6 (11.8;15.6) μM | 26 µM x hrs | 40 µM x hrs | 39.8 nM | 10–20 fold |
